This passage reports AC50 and activity change, negative = inhibition results from PubChem BioAssay AID540268 (Broad Institute, 2011).

Usually AC50 stands for the concentration at which the activity in the assay is half-maximal.

Active and inactive are the calls of the source. The rule behind the calls is not given here.

A short description of one assay: reduced viability of parasite-Hsp90 expressing yeast – ATP luminescence, 48 h, cherry-picked samples, anti-malarial Hsp90 inhibitor project, dose response (AID 540268).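 For activity change, negative = inhibition: 0% = neutral control wells and -100% = positive control wells.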 The settings on record: yeast expressing the parasite Hsp90, ATP luminescence.
As to `Cc1ccc(S(=O)(=O)N(C(=O)c2ccncc2)c2ccc(OC(=O)c3ccncc3)cc2)c(C)c1`, the AC50 was 3.45 µM.

As to `Clc1ccccc1CN(Cc1ccco1)Cc1nnnn1C1CCCC1`, the half-maximal activity concentration (AC50) was 9.49 µM.

Regarding `O=C(/C=C/c1cccc([N+](=O)[O-])c1)c1ccc([N+](=O)[O-])o1`, the AC50 was less than 0.195 µM.

As to `O=C1CC(N2CCCN(C3CC(=O)N(c4ccc(F)cc4)C3=O)CC2)C(=O)N1c1ccc(F)cc1` (stereo not drawn), the concentration at half-maximal activity (AC50) was 3.49 µM.

As for `CCN(CC)C(=S)SSC(=S)N(CC)CC`, the AC50 is 4.55 µM.

For the compound `Cc1ccc(C)c(/C=C/C(=O)c2ccccc(=O)c2O)c1`, the AC50 was 2.19 µM.

As for `CCCCCCCCCCCCCCCC[N+](C)(C)CC`, the AC50 was 4.04 µM.

Turning to `CCCC(=O)NC(c1ccc(C)cc1)c1ccc2cccnc2c1O` (stereo not drawn), the AC50 is 3.4 µM.

Take `CN(CC(=O)Nc1cccc(F)c1)C(=O)c1cn(-c2ccccc2)nc1-c1ccc(Cl)cc1`: the concentration at half-maximal activity (AC50) is 7.8 µM.

For the compound `CCN1C(=O)/C(=C\C(=O)c2cccs2)c2cc(Br)ccc21`, the half-maximal activity concentration (AC50) was 4.28 µM.

Consider `O=C(/C=C/c1ccccc1)c1cc(Br)ccc(=O)c1O`, for which the half-maximal activity concentration (AC50) is 1.51 µM.

`CCOc1cc(S(=O)(=O)NC2CCCCCC2)ccc1F`: the half-maximal activity concentration (AC50) was 5.56 µM.

With `CCC(=O)NC(c1ccc(C)cc1)c1ccc2cccnc2c1O` (stereo not drawn), the AC50 was 3.48 µM.

For the compound `O=C(/C=C/c1ccccc1Cl)c1ccc(O)cc1`, the AC50 is 4.63 µM.

In the case of `CCc1ccc(NC(=O)c2nc(S(=O)(=O)Cc3ccccc3)ncc2Cl)cc1`, the AC50 was 3.5 µM.

`COc1cc(/C=C2\SC(=S)N(Nc3ncc(C(F)(F)F)cc3Cl)C2=O)ccc1O`: the concentration at half-maximal activity (AC50) is 25.8 µM.

Take `Oc1ccc(O)c2c1C1(Cl)C(Cl)=C(Cl)C2(Cl)C1(Cl)Cl`: the AC50 was 3.87 µM.

Regarding `COC(=O)/C=C\C(=O)Nc1cccc([N+](=O)[O-])c1`, the AC50 is 2.43 µM.

In the case of `Cc1cc(C)c(S(=O)(=O)NCC23C=CC(O2)C2C(=O)N(c4ccccc4)C(=O)C23)c(C)c1` (stereo not drawn), the AC50 is 3.21 µM.

In the case of `O=C1C=CC(=O)N1c1ccc(N2CCCCC2)cc1`, the half-maximal activity concentration (AC50) was 0.312 µM.

As to `CN(C)c1ccc(-n2cccc2/C=C/[N+](=O)[O-])cc1`, the AC50 is 4.83 µM.

`CC(C)CC(=O)NC(c1cccs1)c1ccc2cccnc2c1O` (stereo not drawn): the AC50 is 2.72 µM.

`O=C(Nc1nc(-c2ccccn2)cs1)c1ccc(-c2ccccc2F)o1`: the half-maximal activity concentration (AC50) is 8.88 µM.

In the case of `Clc1ccc(CSC(Cn2ccnc2)c2ccc(Cl)cc2Cl)cc1` (stereo not drawn), the AC50 was 0.576 µM.

As for `Cc1ccc(-n2nnnc2C(Cl)(Cl)c2nnnn2-c2ccc(C)cc2)cc1`, the AC50 was 1.12 µM.

For `COc1ccc(/C=C2/CCC(CN3CCOCC3)C2=O)cc1` (stereo not drawn), the AC50 is 0.751 µM.

Take `O=C(OCC(=O)N1CCN(C(=O)c2ccco2)CC1)c1cc(-c2ccccc2)nc2ccccc12`: the AC50 is 3.6 µM.

Turning to `CC1OC(CC(=O)O)CC2=C1C(=O)c1c(O)cccc1C2=O` (stereo not drawn), the AC50 was less than 0.195 µM.

In the case of `C(C#CCCCCCCCCC[n+]1ccccc1)#CCCCCCCCCC[n+]1ccccc1`, the AC50 is 4.06 µM.

Turning to `COC(=O)C1=C(C(=O)OC)SC2(S1)C(C(=O)OC)=C(C(=O)OC)Sc1c2ssc1=O`, the half-maximal activity concentration (AC50) was 8.87 µM.

Turning to `CCCCCCC(=O)N(O)C1CC(=O)N(c2ccc(C)cc2)C1=O` (stereo not drawn), the concentration at half-maximal activity (AC50) is 0.829 µM.

Turning to `COc1cccc(-c2nc(NC3CCCC3)c3ccccc3n2)c1O`, the AC50 was 4.23 µM.

Consider `O=C(CN1CCN(c2ncc(C(F)(F)F)cc2Cl)CC1)NCCNc1ncc(C(F)(F)F)cc1Cl`, for which the half-maximal activity concentration (AC50) is 3.49 µM.

Take `COc1ccc(C2=CC3=C(Br)C(=O)C(C)(OC(=O)c4cccs4)C(=O)C3=CO2)cc1` (stereo not drawn): the AC50 was 4.28 µM.

Take `O=C(c1ccc(Cl)cc1)N1CCN(c2ccc(F)cc2)CC1`: the half-maximal activity concentration (AC50) was 4.47 µM.

Turning to `Cc1ccc(/C=C/C(=O)c2ccccc(=O)c2O)c(C)c1`, the half-maximal activity concentration (AC50) was 1.93 µM.

Turning to `O=[N+]([O-])c1ccc2c(c1)-c1ccccc1C2=NO`, the AC50 was 2.72 µM.

For the compound `O=C1CC(c2ccccc2)CC(O)=C1C=Nc1cccc(Cl)c1` (stereo not drawn), the concentration at half-maximal activity (AC50) was 3.26 µM.

Regarding `CC(=NNC(=S)Nc1ccccc1Cl)c1ccccn1`, the AC50 is 3.91 µM.

`COC(=O)c1ccc(N2C(=O)CC(N3CCC(O)(c4ccc(Br)cc4)CC3)C2=O)cc1` (stereo not drawn): the AC50 is 3.37 µM.

`CCCC(=O)NC(c1cccs1)c1cc(Cl)c2cccnc2c1O` (stereo not drawn): the concentration at half-maximal activity (AC50) is 1.58 µM.

As to `Nc1nonc1C(=O)NCCN=Cc1cc(Cc2ccccc2)cc(Br)c1O`, the half-maximal activity concentration (AC50) was 2.3 µM.

Turning to `CC(=NNC(=S)N1CC2CCC(CC2)C1)c1cnccn1`, the half-maximal activity concentration (AC50) is less than 0.195 µM.

With `CCCCCCC(=O)N(O)C1CC(=O)N(c2ccc(F)cc2)C1=O` (stereo not drawn), the AC50 was 1.32 µM.

Turning to `Cc1c(C)c2cccnc2c2ncccc12`, the concentration at half-maximal activity (AC50) was 4.22 µM.

For `CC1(C)CC[C@]2(C(=O)O)CC[C@]3(C)C(=CC[C@@H]4[C@@]5(C)CC[C@H](O[C@@H]6O[C@H](C(=O)O)[C@@H](O)[C@H](O[C@@H]7OC[C@H](O)[C@H](O)[C@H]7O)[C@H]6O)C(C)(C)[C@@H]5CC[C@]43C)[C@@H]2C1`, the half-maximal activity concentration (AC50) was 1.06 µM.

Take `CCC(=O)NC(c1ccc(Cl)cc1Cl)c1ccc2cccnc2c1O` (stereo not drawn): the AC50 is 3.96 µM.

Consider `COc1ccc2c(c1)c(=Cc1ccc(N(C)C)cc1)c1cc(-c3ccccc3)[n+](C)n12`, for which the concentration at half-maximal activity (AC50) was 6.32 µM.

Turning to `CCN(CC)c1ccc(C(=C2C=CC(=[N+](CC)CC)C=C2)c2ccc(N(CC)CC)cc2)cc1`, the AC50 is 0.735 µM.

Consider `Oc1cc(OCc2ccccc2)ccc1-c1[nH]ncc1-c1ccccc1`, for which the AC50 was 9.04 µM.

As for `CC(C)N1CCN(c2ccc(OC[C@H]3CO[C@](Cn4cncn4)(c4ccc(Cl)cc4Cl)O3)cc2)CC1`, the concentration at half-maximal activity (AC50) was 1.5 µM.

Consider `c1cnc2c(c1)ccc1cccnc12`, for which the AC50 was 6.61 µM.

Turning to `Clc1ccc(N=c2ssnc2Cl)nc1`, the AC50 was 3.19 µM.

Take `Nc1cccc(Oc2c(F)c(F)c(Oc3cccc(N)c3)c(F)c2F)c1`: the AC50 is 9.03 µM.

In the case of `O=C(/C=C/c1cccc(C(F)(F)F)c1)Nc1cccc(C(F)(F)F)c1`, the AC50 is 8.08 µM.

For the compound `Oc1ccc2ccccc2c1/C=N/Nc1nnc(-c2ncc[nH]2)c2ccccc12`, the half-maximal activity concentration (AC50) is 4.24 µM.

In the case of `CC1=NNC(=O)/C1=C\c1cn(-c2ccccc2)nc1-c1cccs1`, the half-maximal activity concentration (AC50) was 4.87 µM.

For `CCCCCCCCCCCCCCCC[N+](C)(C)C`, the AC50 was 8.6 µM.

On to `CSC(=S)NN=C(C)c1cccc(C)n1`, for which the AC50 is 15.6 µM.

Regarding `CCn1c(CNc2ccc(Cl)cc2)nnc1SCc1ccccc1`, the half-maximal activity concentration (AC50) was 2.26 µM.

Regarding `COc1ccccc1-c1sc2cc3c(cc2c1-c1ccc(O)cc1)OCO3`, the concentration at half-maximal activity (AC50) was 8.2 µM.

As for `Cc1ccc2c(c1)C(=O)C(=O)N2Cc1ccc(C(F)(F)F)cc1`, the AC50 was 7.78 µM.

Consider `COc1cc(/C=C/C(=O)c2ccc([N+](=O)[O-])o2)ccc1O`, for which the half-maximal activity concentration (AC50) was 2.02 µM.

Regarding `Oc1ccc(/C=N/N(Cc2ccccc2)c2ccccc2)cc1`, the half-maximal activity concentration (AC50) was 8.09 µM.

As to `COCCOC(=O)/C(=C/c1ccc(OC(=O)c2ccccc2)cc1)C(C)=O`, the AC50 is 2.68 µM.

`O=C(Oc1ccc(Cl)c2cccnc12)c1cccnc1`: the half-maximal activity concentration (AC50) was 7.85 µM.

For the compound `O=[N+]([O-])c1cnc(Sc2ccncn2)s1`, the AC50 is 3.02 µM.

In the case of `O=C(NNc1nc2ccc(Cl)cc2s1)c1cc(-c2cccs2)nc2ccccc12`, the concentration at half-maximal activity (AC50) is 1.49 µM.

As for `Oc1c(Br)cc(Br)cc1C=Nc1cccnc1`, the AC50 was 5.8 µM.

Regarding `O=C(C#Cc1ccccc1)c1ccc([N+](=O)[O-])cc1`, the half-maximal activity concentration (AC50) is 2.1 µM.

As for `c1ccc(-c2cccc(-c3ccccn3)n2)nc1`, the AC50 was 1.03 µM.

`O=[N+]([O-])c1ccc(O)c2ncccc12`: the AC50 was 1.66 µM.

Turning to `CC(C)(C)c1nn(-c2ccccc2)c2[nH]c(=O)c(C=O)cc12`, the AC50 was 1.31 µM.

With `CC(NC(=O)c1ccc(Br)cc1)c1ccc2c(c1)CCCC2` (stereo not drawn), the AC50 was 1.37 µM.

As for `Cc1cccc(C)c1NC(=O)C(Cl)C(=O)c1ccccc1` (stereo not drawn), the AC50 was 1.11 µM.

`COc1ccccc1C(=O)NNC(=S)NC(=O)c1cccs1`: the AC50 was 6.92 µM.

On to `O=C(Oc1c(Cl)cc(Cl)c2cccnc12)c1cccc([N+](=O)[O-])c1`, for which the AC50 is 16 µM.

On to `O=C(Nc1nc(-c2ccccc2)cs1)c1ccccc1NS(=O)(=O)c1ccc(F)cc1`, for which the concentration at half-maximal activity (AC50) was 4.09 µM.

Turning to `Cc1ccc(S(=O)(=O)c2ccc([N+](=O)[O-])cn2)cc1`, the AC50 is 3.87 µM.

As for `CC(C)(C)c1cc(NCc2ccccn2)n2ncc(-c3ccccc3)c2n1`, the half-maximal activity concentration (AC50) is 1.49 µM.

As for `O=[N+]([O-])c1ccc(C=Nc2ccc(Cl)cc2Cl)s1`, the concentration at half-maximal activity (AC50) is 8.6 µM.

`CCN(CC)c1ccc(C(=C2C=CC(=[N+](CC)CC)C=C2)c2ccccc2)cc1`: the concentration at half-maximal activity (AC50) is 1.09 µM.

For the compound `O=C1/C(=C\c2ccc(O)c(O)c2)SC(=S)N1Cc1ccccc1`, the concentration at half-maximal activity (AC50) is 4.26 µM.

In the case of `O=C1/C(=C/c2ccncc2)CCC/C1=C\c1ccncc1`, the AC50 is 4.25 µM.

As for `CCOC(=O)C1=C(N)N2C(=O)C(C)SC2=C(C(=O)OC)C1c1ccccc1OC` (stereo not drawn), the half-maximal activity concentration (AC50) is 0.706 µM.

Turning to `O=C(/C(=C/c1ccc(Cl)cc1)c1nc2ccccc2[nH]1)c1ccccc1`, the concentration at half-maximal activity (AC50) is 7.04 µM.

As for `CCCC(=O)NC(c1ccc(OC)c(OC)c1)c1cc(Cl)c2cccnc2c1O` (stereo not drawn), the half-maximal activity concentration (AC50) is 6.12 µM.

For the compound `O=C1C(Cl)=C(NCCc2ccccc2)C(=O)c2ccccc21`, the concentration at half-maximal activity (AC50) is 0.556 µM.

Turning to `O=C(O)/C=C/c1cn(-c2ccccc2)nc1-c1cc2ccccc2o1`, the AC50 is 16 µM.

As to `O=S(=O)(NC1CC2CCC1C2)c1ccc(Br)cc1` (stereo not drawn), the concentration at half-maximal activity (AC50) was 0.86 µM.

For `O=C1c2ccccc2NC(c2ccc(-c3ccc(C(F)(F)F)cc3)o2)N1O` (stereo not drawn), the AC50 is 7.62 µM.

Take `CCCC1COC(Cn2cncn2)(c2ccc(C)cc2)O1` (stereo not drawn): the AC50 was 0.628 µM.

The assay is the same for the next values; noted with them: yeast expressing the parasite Hsp90, ATP luminescence, at 26 µM (top of the series).
For the compound `O=C1S/C(=C/c2ccc(N3CCOCC3)o2)C(=O)N1Cc1c(F)cccc1Cl`, the activity change, negative = inhibition is 23.4% (inactive).

With `N/C(Cc1ccc(Cl)c(Cl)c1)=N\OC(=O)c1ccc(Br)o1`, the activity change, negative = inhibition was 66.7% (inactive).

As for `CN(C)c1ccc(-c2cc(O)c3ncccc3c2)cc1`, the activity change, negative = inhibition is 26.4% (inactive).

Regarding `N#C/C(=C/c1ccc(N2CCCCCC2)o1)c1ccc(Cl)cc1`, the activity change, negative = inhibition was -50.5% (inactive).

For the compound `COc1cc(N=c2ssnc2Cl)c(OC)cc1Cl`, the activity change, negative = inhibition was -119% (inactive).

In the case of `CCOc1ccc(S(=O)(=O)NCc2ccccn2)c(C)c1C`, the activity change, negative = inhibition is 14.4% (inactive).
